Measured values published in patent US20210246164A1, “PEPTIDIC PROTEIN KINASE C INHIBITORS AND USES THEREOF” (UNIVERSITE DE GENEVE, priority 2016, published 2021).
Where a SMILES comes first, the peptide text is derived from it. Where no end group is shown, it is not given here. The star is where a group is joined. Myristoyl = CCCCCCCCCCCCCC(=O)*

Key:
[1] = system: primary human nasal epithelial cell monolayers; experiment: Permeabilization of fluorescein-conjugated dextran (FD) across nasal epithelial monolayers (cumulative release, Papp); type: cell-based; details: 150 minutes; for permeability of fluorescein conjugated dextran of 4 kDa (cumulative release): peptide 10 μM apical, vs control
Protocol: (§1) To assess the potential effects of peptides of the invention on the permeabilization of therapeutic molecules, fluorescein-conjugated dextrans (FD) were used to as a model for assessing paracellular drug transport (apical to basolateral) across the epithelial monolayer.
(§2) To ensure that the integrity of the monolayer was maintained during the course of the experiment, trans-epithelial electrical resistance (TEER) was measured before and after these studies, as described below.
(§3) Mucilair™ human primary nasal and bronchial epithelial cells (Epithelix sarl, Geneva, Switzerland) were used (Huang et. al., 2013, Toxicol. in Vitro 27: 1151-1156).
(§4) Before each experiment, the culture medium was removed from each compartment and the monolayer was washed once with 200 μl of saline (0.9%) and once with warm Hanks' Balanced Salt Solution (HBSS) (37° C.). In the basolateral compartment, 600 μL of pre-warmed HBSS was placed and the cells were returned to the incubator at 37° C. for 30 minutes to equilibrate. After equilibration, the peptides of the invention were applied to the apical side of an epithelial monolayer 5 minutes prior to the addition of FD solution. Peptide 1 according to the invention (P1 of SEQ ID NO: 2) was tested in comparison with comparative peptides C1 (SEQ ID NO: 4) and C2 (SEQ ID NO: 5). FD having a molecular weight (MW) of 4 and 150 kDa were used.
(§5) All peptides were used at a final concentration of 10 μM. The vehicle was used as a control (CTRL). The FD solution was added to the apical compartment to make a final volume of 200 μl. Samples of 100 μL were taken from the basal compartment of each well every 30 minutes over a period of 150 minutes, with each volume being replaced with equal amount of fresh warm buffer to maintain sink condition. The fluorescence of FD was measured in black 96-well plates using a fluorescence plate reader (BioTek Synergy Mx plate reader, BioTek Instruments GmbH, Lucerne, Switzerland), using excitation and emission wavelengths of 485 and 520 nm, respectively. Cumulative release (ng) corresponds to the actual amount of drug released cumulatively and corresponds to the amount in the suspension medium at any time plus the amount of the drug lost during each sampling.
(§6) Trans-epithelial electrical resistance (TEER): After addition of 200 μl of culture medium to the apical compartment of the tissue cultures, resistance was measured across cultures with an EVOMX volt-ohm-meter (World Precision Instruments UK, Stevenage) in triplicate for each time point. The TEER values (Ω) were converted normalized by using the following formula: TEER (Ωcm^2)=(resistance value (Ω)−100 (Ω))×0.33 (cm^2), where 100Ω is the resistance of the membrane and 0.33 cm^2 is the total surface of the epithelium.
(§7) To assess the role of the membrane penetrating group (myristoyl) in peptides of the invention in the enhancing of the permeability of macromolecules through epithelial cell layers, the permeabilizing capacity of peptide P1 of the invention was compared to a comparative peptide C3 (SEQ ID NO: 6) corresponding to the same peptide without the myristoyl group. The permeabilizing capacity of a peptide P2 (SEQ ID NO: 3) of the invention was also assessed. Uptake experiments and TEER were conducted as described in Example 2.
(§8) To assess the duration of the permeabilization effect of the peptide of the invention, apparent permeability of peptides of various lengths was evaluated as follows. Apparent permeability refers to the amount of released FD at that time point when the sample is collected.
(§9) The tested Peptides, uptake experiments and TEER were as described in Example 2.
(§10) Apparent permeability of FD: The apparent permeability (Papp) of FD was calculated using equation 1: Papp=(dQ/dt)/A*C0 (1)

[2] = system: primary human bronchial epithelial cell monolayers; experiment: Permeabilization of fluorescein-conjugated dextran (FD) across bronchial epithelial monolayers (cumulative release, Papp); type: cell-based; details: 150 minutes; for permeability of fluorescein conjugated dextran of 4 kDa (cumulative release): peptide 10 μM apical, vs control
Protocol: as §1, §2, §3, §4, §5, §6, §7, §8, §9, §10

in vitro = details: human, Caco-2 cells
Protocol: Viability of Caco-2 cells (human intestinal epithelial cell line) was determined by a cell proliferation assay using WST-1 based colorimetric assay. […] WST-1 reagent (diluted 1:10 in cell culture medium) was added as described in the instruction manual (Roche Diagnostics GMBH, Mannheim, Germany). Following 1-3 h incubation at 37° C. with the peptides or controls, absorbance at 450 nm (reference at 690 nm) was measured by a BioTek Synergy Mx plate reader. Percentage of cell viability was calculated based on the absorbance measured relative to that of cells exposed to only culture medium (control group). Sodium dodecyl sulfate (SDS) at 2% was used as a positive control for cell toxicity.

[3] = system: non-small cell lung cancer (NSCLC); details: compared to chemotherapies; cited from earlier work

Molecule	permeability of fluorescein conjugated dextran of 4 kDa (cumulative release) [1]	permeability of fluorescein conjugated dextran of 4 kDa (cumulative release) [2]	other results
CCCCCCCCCCCCCC(=O)N[C@@H](CO)C(=O)N[C@H](C(=O)N[C@@H](Cc1ccc(O)cc1)C(=O)N[C@@H](CCCNC(=N)N)C(=O)N[C@@H](CCCNC(=N)N)C(=O)NCC(=O)N[C@@H](C)C(=O)N[C@@H](CCCNC(=N)N)C(=O)N[C@@H](CCCNC(=N)N)C(=O)N[C@@H](Cc1c[nH]c2ccccc12)C(=O)N[C@@H](CCCNC(=N)N)C(=O)N[C@@H](CCCCN)C(=O)N[C@@H](CC(C)C)C(=O)O)[C@@H](C)CC [Peptide C1, reference compound] (Myristoyl-SIYRRGARRWRKL-OH; C-terminus assumed)			reversibility of permeabilization of FD 4 kDa (decrease in Papp overtime) ([1]; peptide 10 μM): reversible; reversibility of permeabilization of FD 4 kDa (decrease in Papp overtime) ([2]; peptide 10 μM): reversible; viability at 24 h, 50 µM (in vitro): 55.2%; viability at 24 h, 100 µM (in vitro): 34%
COc1cc2ncnc(Nc3ccc(F)c(Cl)c3)c2cc1OCCCN1CCOCC1 [gefitinib, N-(3-Chloro-4-fluorophenyl)-7-methoxy-6-(3-morpholinopropoxy) quinazolin-4-amine]			progression free survival (PFS) [3]: 7.7-12.9 months
ARRWR (not fully specified (N-terminus)) [Peptide C3, same peptide as P1 without the myristoyl group, reference compound]	did not show significant difference in permeabilization ability compared to the negative control	did not show significant difference in permeabilization ability compared to the negative control	
Myr-AKRWR (Myristoyl-AKRWR) [Peptide P2]	increased the permeability of the fluorescein conjugated dextran of 4 kDa in a significant manner		
N-acetyl-ARR [Peptide C2, reference compound]	not differing from control	not differing from control	
